Peptide text beside a SMILES is read from it. * marks the point of attachment. Cbz = O=C(OCc1ccccc1)*
Legend:
[1] = tested on: UBR1; assay: Inhibition of R-nsP4 degradation by in vitro transcription/translation method; type: biochemical; conditions: compound 1 uM, 30° C. for 40 minutes, DHFR-Ub-R-nsP4 plasmid, compared to the control
Procedure: A TnT® Quick Coupled Transcription/Translation System kit was used to confirm the R-nsP4 expression of the compounds. After a pre-mix was made using Transcend Biotin-Lysyl-tRNA, methionine, bestatin, a TnTquick Master mix and a DHFR-Ub-R-nsP4 plasmid, the pre-mix was mixed with a compound (1 uM). After each sample was reacted at 30° C. for 40 minutes, a 5×SDS loading dye was added thereto. After the resulting mixture was reacted at 95° C. for 2 minutes, 5 uL was taken and aliquoted into each well of an acrylamide gel, and then an immunoblotting method was performed, and the experimental results are illustrated in [FIG. 2]. For an in vitro transcription/translation method, a representative experiment was schematized from three or more independent experiments.

[2] = molecular target: T1, UBR1 (Rattus norvegicus, UniProt A0A8I5ZK69); assay: Inhibition of muscle cell actin degradation by immunoblotting (L6 cells); type: cell-based; conditions: compound 5 uM alone, 24 hours, immunoblot
T1 construct: endogenous in cells; host or cells: L6 rat muscle-derived cells
T1 sequence (A0A8I5ZK69 1-1749): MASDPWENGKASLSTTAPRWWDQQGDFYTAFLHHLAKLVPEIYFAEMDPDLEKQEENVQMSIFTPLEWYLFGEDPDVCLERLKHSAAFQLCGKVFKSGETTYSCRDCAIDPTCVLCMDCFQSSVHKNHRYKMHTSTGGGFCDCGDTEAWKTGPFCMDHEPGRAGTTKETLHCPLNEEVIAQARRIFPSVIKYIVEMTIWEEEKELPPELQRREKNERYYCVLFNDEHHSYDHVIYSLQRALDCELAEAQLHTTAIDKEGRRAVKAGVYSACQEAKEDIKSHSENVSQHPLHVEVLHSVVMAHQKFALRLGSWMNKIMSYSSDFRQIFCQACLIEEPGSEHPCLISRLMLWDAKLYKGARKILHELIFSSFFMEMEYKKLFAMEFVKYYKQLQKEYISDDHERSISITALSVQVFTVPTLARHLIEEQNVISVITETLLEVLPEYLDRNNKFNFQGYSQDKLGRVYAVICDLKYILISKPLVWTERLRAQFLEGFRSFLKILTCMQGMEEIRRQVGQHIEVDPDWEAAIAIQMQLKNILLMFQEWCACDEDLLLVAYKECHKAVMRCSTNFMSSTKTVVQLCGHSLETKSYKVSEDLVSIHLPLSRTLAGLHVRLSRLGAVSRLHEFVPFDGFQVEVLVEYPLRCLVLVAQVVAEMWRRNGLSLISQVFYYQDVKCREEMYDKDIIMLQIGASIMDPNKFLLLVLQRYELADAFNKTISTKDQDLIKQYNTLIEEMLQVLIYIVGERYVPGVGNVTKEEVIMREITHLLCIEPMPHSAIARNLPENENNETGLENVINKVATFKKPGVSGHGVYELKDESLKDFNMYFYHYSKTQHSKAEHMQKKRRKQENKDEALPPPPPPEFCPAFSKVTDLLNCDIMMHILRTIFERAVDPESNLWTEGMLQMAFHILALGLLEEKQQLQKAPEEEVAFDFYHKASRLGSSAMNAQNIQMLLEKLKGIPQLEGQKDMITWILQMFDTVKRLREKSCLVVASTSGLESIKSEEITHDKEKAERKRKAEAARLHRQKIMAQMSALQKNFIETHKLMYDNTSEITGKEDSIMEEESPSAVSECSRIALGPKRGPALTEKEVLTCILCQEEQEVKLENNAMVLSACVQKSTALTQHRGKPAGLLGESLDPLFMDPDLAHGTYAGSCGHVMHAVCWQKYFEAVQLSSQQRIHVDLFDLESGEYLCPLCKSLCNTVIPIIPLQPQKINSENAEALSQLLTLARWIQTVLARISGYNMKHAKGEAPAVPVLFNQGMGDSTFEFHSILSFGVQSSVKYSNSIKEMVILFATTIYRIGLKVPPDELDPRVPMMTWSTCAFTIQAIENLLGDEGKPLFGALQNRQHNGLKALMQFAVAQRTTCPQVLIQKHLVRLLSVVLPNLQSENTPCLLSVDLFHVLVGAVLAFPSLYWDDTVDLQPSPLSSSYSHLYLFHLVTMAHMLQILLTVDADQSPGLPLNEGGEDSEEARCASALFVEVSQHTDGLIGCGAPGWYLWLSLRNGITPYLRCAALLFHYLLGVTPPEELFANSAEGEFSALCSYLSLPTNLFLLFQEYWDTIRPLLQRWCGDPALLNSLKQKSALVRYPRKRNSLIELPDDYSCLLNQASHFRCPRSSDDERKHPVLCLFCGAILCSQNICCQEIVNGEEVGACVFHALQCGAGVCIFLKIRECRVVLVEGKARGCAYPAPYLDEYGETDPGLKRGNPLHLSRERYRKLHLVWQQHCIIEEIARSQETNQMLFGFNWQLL
Procedure: To evaluate the actin degradation of compounds in muscle cells, a L6 cell line, which is a rat muscle-derived cell, was cultured using a DMEM medium containing 10% FBS and 1% streptomycin/penicillin in an incubator in which 5% carbon dioxide was maintained. In order to measure the UBR1 binding strength according to the treatment with a representative compound selected from the present compounds, cells were aliquoted into a 12-well plate. The cells were additionally cultured for 24 hours so as to be completely attached to the surface of the plate. […] To extract proteins from the collected cells, 50 uL of a lysis buffer (20 mM Tris, pH 7.4, 150 mM NaCl, 1% Triton-X-100, 2 mM NaF, 2 mM EDTA, 2 mM b-glycerophosphate, 5 mM sodium orthovanadate, 1 mM PMSF, leupeptin, aprotenin) was injected into each sample, and the cells were lysed. A sample buffer was added to each sample based on the measured total protein concentration, and the mixture was reacted at 100° C. for 5 minutes. After 5 uL was taken from the completely reacted sample and aliquoted into each well of an acrylamide gel, an immunoblotting method was performed, and the experimental results were illustrated in [FIG. 3]. For the immunoblotting method, a representative experiment was schematized from three or more independent experiments.

[3] = tested on: L6 cell line; assay: Immunoblotting of muscle actin levels in L6 cells after MG132 treatment; type: cell-based, rat; conditions: MG132 10 uM alone, 24 hours, immunoblot, compared to a control
Procedure: A L6 cell line, which is a rat muscle-derived cell, was cultured using a DMEM medium containing 10% FBS and 1% streptomycin/penicillin in an incubator in which 5% carbon dioxide was maintained, and cells were aliquoted into a 12-well plate after the culture. The cells were additionally cultured for 24 hours so as to be completely attached to the surface of the plate. To confirm whether MG132 increased UBR1 binding, cells were collected after treatment with MG132 (10 uM) alone for 24 hours. To extract proteins from the collected cells, 50 uL of a lysis buffer (20 mM Tris, pH 7.4, 150 mM NaCl, 1% Triton-X-100, 2 mM NaF, 2 mM EDTA, 2 mM b-glycerophosphate, 5 mM sodium orthovanadate, 1 mM PMSF, leupeptin, aprotenin) was injected into each sample, and the cells were lysed. A sample buffer was added to each sample based on the measured total protein concentration, and the mixture was reacted at 100° C. for 5 minutes. After 5 uL was taken from the completely reacted sample and aliquoted into each well of an acrylamide gel, an immunoblotting method was performed, and the experimental results are illustrated in [FIG. 1].
For the immunoblotting method, a representative experiment was schematized from three or more independent experiments.
Referring to FIG. 1, it was confirmed that the levels of ACTA1, ACTC1, and ACTG2 were increased by MG132 compared to a control. Further, it was confirmed that the levels of ACTA1 and ACTG2 were increased when a UBR protein was knocked down. That is, it could be confirmed that muscle actin is an Arg/N-degron pathway substrate.

Compound	level of R-nsP4 [1]	level of ACTA1 [2]	level of ACTA1 [3]	level of ACTC1 [3]	level of ACTG2 [3]
COCCCCC(=O)Nc1cc(C(C)=O)ccc1Cl [Compound 1, N-(5-acetyl-2-chlorophenyl)-5-methoxypentanamide]	increased	further increased			
COCCCCC(=O)Nc1cc(C(N)=O)ccc1Cl [Compound 2, 4-chloro-3-(5-methoxypentanamido)benzamide]	increased	further increased			
CC(C)C[C@@H](C=O)NC(=O)[C@H](CC(C)C)NC(=O)[C@H](CC(C)C)NC(=O)OCc1ccccc1 [MG132] (Cbz-Leu-Leu-Leu-aldehyde)			increased	increased	increased
